Molecules are shown by their SMILES.

In one assay the target is LATS1 (Homo sapiens (Human), UniProt O95835). Description: LATS1 biochemical assay (Table 1A, Compound Examples 1-290; method in the earlier part).
In assay [1] the target is Human LATS2 kinase domain protein (Homo sapiens (Human), UniProt Q9NRM7). Description: LATS2 Biochemical Caliper Assay (Compound Examples 1-290). The following applies: 400 micromolar ATP. The method, then:
Human LATS2 kinase domain protein was purchased from Carnabio (catalogue number 01-124), which harbors the catalytic domain of amino acids 553-1088, and was co-purified with human His-tagged MOBKL1A (NP_775-739). 5 microlitre of enzyme buffer, 100 nL of compounds and 5 microlitre of localising aid buffer were added into 384-well plates. […] The plates were incubated at 25° C. for 3 hours. 40 microlitre of stop buffer with 25 mM EDTA (NanoSyn) was added to each well to terminate the reaction. Localising aids and products were separated electrophoretically using the microfluidic-based Caliper Labchip 3000 Drug Discovery System (Caliper Life Sciences). Plates were read using blue laser excitation and green fluorescence detection and quantified by fluorescence intensity.

The test system of assay [2] is Phospho-YAP (SER127) in HaCaT cells. Description: pYAP HTRF Assay (HaCaT Cells). Format: cell-based, human. The following applies: Homo sapiens, 2 hours. Summed up:
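Phospho-YAP (Ser127) was measured by HTRF (665 nm/620 nm ratio) in HaCaT cells. Cells were grown 48 hours at 37° C at 5500 cells/well, exposed to compound for 2 hours, and incubated with detection reagents for 20 hrs at room temperature.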

Assay [3] concerns YAP nuclear translocation in HaCaT cells. Description: YAP Translocation Assay (HaCaT Cells). Format: cell-based, human. To be noted: Homo sapiens, 24 hours. Summed up:
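HaCaT cells (20,000/well) in DMEM + 10% FBS were plated overnight at 37° C, then exposed to compound for 24 h at 37° C. Cells were fixed with PFA, permeabilized with 0.1% Triton/1.5% BSA and imaged by high-content imaging.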

Assay [4] concerns Phospho-YAP (Ser127) in JHH-5 cells. Description: pYAP HTRF Assay (JHH-5 cells). Format: cell-based. To be noted: 2 hours. Summed up:
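Phospho-YAP read by HTRF (665 nm/620 nm ×10000) in lysates after overnight 18 h antibody incubation at room temperature. Compound treatment lasted 2 h at 37 °C, on JHH-5 cells plated 24 h earlier at 24000 per well in William's E medium with 10% FBS.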
(TR-FRET usually uses a lanthanide donor and a delayed reading to cut background.)

Assay [5] relates to human limbal stem cells (LSCs). Description: Human limbal stem cell population expansion: expansion factor. The assay is classed as cell-based. The following applies: 10 micromolar, XVIVO15 medium, two passages, ratio of expanded to seeded cells. The method, then:
(§1) Cells were cultured at 37° C. in 5% CO2.
(§2) For each compound, two sets of cultures were generated. A first set of cultures was fixed in 4% PFA for 20 minutes at room temperature after cells isolated from the cornea had attached to the cell culture dish (typically 24 h after cell plating). A second set of cultures was fixed in 4% PFA for 20 minutes at room temperature after being cultured for two passages. Cells were passaged when they reached 90-100% confluence.
To evaluate cell expansion ratios, nuclei were counted using a Zeiss LSM 880 confocal microscope. The expansion factor was then determined by calculating the ratio of the expanded population of cells to population of seeded cells.

Assay [6] concerns human limbal stem cells (LSCs). Description: Human limbal stem cell population expansion: percentage of p63alpha-positive cells. Format: cell-based. To be noted: 10 micromolar, XVIVO15 medium. As to the method:
as §1, §2
In order to observe that the expanded cell population expressed p63alpha, this was measured by immunohistochemistry as follows. The fixed cell cultures were permeabilized and blocked in a blocking solution of 0.3% Triton X-100 (Sigma-Aldrich) and 3% donkey serum in PBS for 30 minutes. Cells were then labeled with primary antibody in the blocking solution for 12 hours at 4° C. Primary antibody used was p63alpha from Cell Signalling. Samples were washed in PBS three times and donkey-raised secondary antibody Alexa Fluor 488 (Molecular Probes) at 1:500 dilution were applied for 30 minutes at room temperature. Cell nuclei were then labeled in a solution of 0.5 micromolar of Sytox Orange (ThermoFisher) in PBS for 5 minutes at room temperature.
To evaluate the percentage of p63alpha-positive cells, the number of cells labeled by the anti-p63alpha antibody was counted and the total number of cells was determined by counting the number of nuclei stained by Sytox Orange. The proportion of p63alpha-positive cells was then determined by calculating the percentage of Sytox-orange-positive nuclei that also expressed p63alpha.

The test system of assay [7] is human corneal endothelial cells (CECs). Description: Human corneal endothelial cell population expansion: fold cell expansion. The following applies: 10 micromolar compound, X-VIVO15 medium, 10 days, ratio of expanded to seeded cells. The assay is classed as cell-based. The method, then:
as §1
(§3) For each compound, two sets of cultures were generated. A first set of cultures was fixed in 4% PFA for 20 minutes at room temperature after cells isolated from the cornea had attached to the cell culture dish (typically 24 h after cell plating). A second set of cultures was fixed in 4% PFA for 20 minutes at room temperature 10 days after the first one.
(§4) To measure cell density in all fixed cultures, the number of nuclei stained with Sytox Orange (ThermoFisher) were counted per surface area as follows: fixed cell cultures fixed were permeabilized in a solution of 0.3% Triton X-100 (Sigma-Aldrich). Cells were then labeled in a solution of 0.5 micromolar of Sytox Orange in PBS for 5 minutes at room temperature. Nuclei were counted under a Zeiss epifluorescence microscope. The expansion factor was then determined by calculating the ratio of the expanded population of cells to population of seeded cells.

Assay [8] shares this test system. Description: Human corneal endothelial cell population expansion: endothelial cell density in vitro. The assay is classed as cell-based. To be noted: 10 micromolar compound, X-VIVO15 medium, 10 days. The method, then: as §1, §3, §4

Sequence of Human LATS2 kinase domain protein (Q9NRM7 553-1088): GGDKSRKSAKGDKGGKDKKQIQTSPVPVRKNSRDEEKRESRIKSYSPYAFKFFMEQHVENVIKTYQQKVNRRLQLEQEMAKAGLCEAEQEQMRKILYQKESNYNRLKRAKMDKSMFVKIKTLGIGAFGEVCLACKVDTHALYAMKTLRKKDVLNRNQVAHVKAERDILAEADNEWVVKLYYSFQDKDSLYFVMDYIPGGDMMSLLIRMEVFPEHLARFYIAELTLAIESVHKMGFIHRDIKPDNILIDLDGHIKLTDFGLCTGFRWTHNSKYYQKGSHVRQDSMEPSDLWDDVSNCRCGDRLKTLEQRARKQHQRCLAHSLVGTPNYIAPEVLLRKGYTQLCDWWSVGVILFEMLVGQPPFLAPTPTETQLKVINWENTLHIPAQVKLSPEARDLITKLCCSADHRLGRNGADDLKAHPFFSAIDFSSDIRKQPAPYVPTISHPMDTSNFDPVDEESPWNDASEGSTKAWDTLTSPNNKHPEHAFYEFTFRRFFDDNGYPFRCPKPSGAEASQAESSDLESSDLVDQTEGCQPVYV
Sequence of Human LATS2 kinase domain protein (Q7L9L4 whole entry partner, the tested form may be a part): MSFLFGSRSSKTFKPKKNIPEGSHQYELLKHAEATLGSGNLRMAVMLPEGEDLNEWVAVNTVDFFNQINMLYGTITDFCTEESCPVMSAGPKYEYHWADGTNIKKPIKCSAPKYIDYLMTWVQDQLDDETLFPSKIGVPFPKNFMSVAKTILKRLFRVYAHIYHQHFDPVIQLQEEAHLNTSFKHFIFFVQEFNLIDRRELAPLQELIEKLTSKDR
Sequence of LATS1 (O95835 whole entry, looked up, the tested form may be a part): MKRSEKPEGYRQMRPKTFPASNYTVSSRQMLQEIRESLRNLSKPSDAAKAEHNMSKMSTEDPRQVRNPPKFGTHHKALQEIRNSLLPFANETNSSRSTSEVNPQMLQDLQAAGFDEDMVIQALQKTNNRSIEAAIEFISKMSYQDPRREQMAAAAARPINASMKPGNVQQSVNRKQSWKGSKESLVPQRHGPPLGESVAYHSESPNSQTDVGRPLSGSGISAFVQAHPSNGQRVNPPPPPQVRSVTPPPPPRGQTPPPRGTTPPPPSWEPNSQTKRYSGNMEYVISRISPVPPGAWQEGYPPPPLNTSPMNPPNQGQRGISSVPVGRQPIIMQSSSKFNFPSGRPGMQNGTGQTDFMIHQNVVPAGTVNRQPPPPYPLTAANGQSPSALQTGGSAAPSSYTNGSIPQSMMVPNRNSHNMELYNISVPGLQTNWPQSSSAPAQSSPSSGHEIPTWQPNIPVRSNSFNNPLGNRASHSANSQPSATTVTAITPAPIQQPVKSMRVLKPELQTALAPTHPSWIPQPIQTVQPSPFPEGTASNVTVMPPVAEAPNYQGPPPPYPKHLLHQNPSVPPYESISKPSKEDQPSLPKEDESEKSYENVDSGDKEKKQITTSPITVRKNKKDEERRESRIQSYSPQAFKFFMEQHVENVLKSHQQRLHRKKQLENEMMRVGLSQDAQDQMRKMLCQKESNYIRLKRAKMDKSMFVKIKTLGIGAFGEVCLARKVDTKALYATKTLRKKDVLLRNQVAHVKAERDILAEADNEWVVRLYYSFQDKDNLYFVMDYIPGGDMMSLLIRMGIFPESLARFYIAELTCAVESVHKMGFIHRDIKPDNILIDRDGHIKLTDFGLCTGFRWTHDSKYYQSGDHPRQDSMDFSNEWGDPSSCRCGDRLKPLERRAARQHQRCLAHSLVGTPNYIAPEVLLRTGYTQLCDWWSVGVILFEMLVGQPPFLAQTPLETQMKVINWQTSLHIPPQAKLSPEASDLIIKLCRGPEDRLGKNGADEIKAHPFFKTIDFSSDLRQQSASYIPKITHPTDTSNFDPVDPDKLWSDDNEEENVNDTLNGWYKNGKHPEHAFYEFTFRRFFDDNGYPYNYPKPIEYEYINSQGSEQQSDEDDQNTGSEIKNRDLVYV
Sequence of LATS1 (Q7L9L4 whole entry partner, looked up, the tested form may be a part): as the sequence (Q7L9L4 whole entry partner, the tested form may be a part) above

For `FC(F)(F)C1(Nc2nc(-c3ccncc3)nc3cnccc23)CCC1` [Example 62, 2-(pyridin-4-yl)-N-[1-(trifluoromethyl)cyclobutyl]pyrido[3,4-d]pyrimidin-4-amine], the IC50 (usually the concentration that inhibits the measured activity by half) was determined as 1 nM at LATS1, 2 nM in assay [1], 40 nM in assay [2] and 600 nM in assay [4]. The EC50 (as a rule, the concentration that produces a half-maximal response) in assay [3] amounted to 538 nM. The Expansion factor in assay [5] was found to be 1712. Moreover, the “Percentage of p63a-positive cells” value in assay [6] was found to be 95%. In assay [7], the “Expansion factor (Fold Cell expansion)” value was found to be 402. The “Endothelial Cell density in vitro” value in assay [8] came out at 3301 cells/mm^2.

For `CC1CCCC1Nc1nc(-c2ccncc2)nc2cnccc12` (stereo not shown) [Example 17, N-(2-methylcyclopentyl)-2-(pyridin-4-yl)pyrido[3,4-d]pyrimidin-4-amine], the values for the IC50 (at LATS1; in [2]) were 5 nM and 606 nM, respectively. This molecule also had a concentration for a half-maximal effect (EC50) in assay [3] of 2630 nM. In [5], the Expansion factor is 976. Besides, the “Percentage of p63a-positive cells” value in assay [6] was 86%. For the same molecule, the “Expansion factor (Fold Cell expansion)” value in assay [7] stood at 187. In [8], the “Endothelial Cell density in vitro” value is on record as 1628 cells/mm^2.

For `FC(F)(F)C1CN(c2nc(-c3ccncc3)nc3cnccc23)CCN1` (stereo not shown) [Example 290, 2-(pyridin-4-yl)-4-(3-(trifluoromethyl)piperazin-1-yl)pyrido[3,4-d]pyrimidine], the IC50 on LATS1 came to 4 nM; in assay [1], 8 nM; in assay [4] it was 3000 nM. Moreover, a half-maximal effect in assay [3] (EC50) was put at 1390 nM. Besides, the Expansion factor in assay [5] is 1051. Further, the “Percentage of p63a-positive cells” value in [6] was found to be 90%. The “Expansion factor (Fold Cell expansion)” value in [7] is given as 221. The “Endothelial Cell density in vitro” value in assay [8] is listed as 2071 cells/mm^2.

`CC(C)N(C)c1nc(-c2ccncc2)nc2cnccc12` [Example 5, N-methyl-N-(propan-2-yl)-2-(pyridin-4-yl)pyrido[3,4-d]pyrimidin-4-amine]: the values for the IC50 (on LATS1; in assay [2]; in [4]) were 2 nM, 2190 nM and 2300 nM, respectively. This molecule also returned an EC50 in [3] of 2480 nM. In addition, the “Expansion factor (Fold Cell expansion)” value in [7] turned out to be 408. For the same molecule, in assay [8], the “Endothelial Cell density in vitro” value amounted to 3911 cells/mm^2.

For `FC(F)(F)C1(Nc2nc(-c3ccncc3)cc3cnccc23)CC1` [Example 288, 3-(pyridin-4-yl)-N-(1-(trifluoromethyl)cyclopropyl)-2,6-naphthyridin-1-amine], the IC50 against LATS1 is 4 nM; in [1], 34 nM; in assay [2], 18300 nM. For the same molecule, it took 7420 nM to reach a half-maximal effect in assay [3] (EC50). In addition, in [5], the Expansion factor was determined as 1241. The “Percentage of p63a-positive cells” value in assay [6] worked out at 95%. For the same molecule, in assay [7], the “Expansion factor (Fold Cell expansion)” value was determined as 302. In [8], the “Endothelial Cell density in vitro” value is reported as 2779 cells/mm^2.

In the case of `CC(C)(CO)Nc1nc(-c2ccncc2)nc2cnccc12` [Example 66, 2-methyl-2-{[2-(pyridin-4-yl)pyrido[3,4-d]pyrimidin-4-yl]amino}propan-1-ol], the 50% inhibitory concentration (IC50) against LATS1 stood at 2 nM; in [1] it was 11 nM; in assay [2], 534 nM; in [4], 6200 nM. Moreover, a half-maximal effect in assay [3] (EC50) was put at 1010 nM. The Expansion factor in assay [5] amounted to 1160. Further, in [6], the “Percentage of p63a-positive cells” value worked out at 89%. Also, the “Expansion factor (Fold Cell expansion)” value in assay [7] is given as 280. The “Endothelial Cell density in vitro” value in assay [8] was 2503 cells/mm^2.

As to `CC1(Nc2cc(-c3ccncc3)cc3cnccc23)CC1` [Example 289, N-(1-methylcyclopropyl)-7-(pyridin-4-yl)isoquinolin-5-amine], the IC50 at LATS1 stood at 4 nM; in assay [2] it was 34100 nM. In [3], this molecule came in with a 50% effective concentration (EC50) of 6500 nM. Also, in [5], the Expansion factor came to 681. Moreover, in assay [6], the “Percentage of p63a-positive cells” value came out at 80%. The “Expansion factor (Fold Cell expansion)” value in assay [7] turned out to be 84. Moreover, the “Endothelial Cell density in vitro” value in assay [8] is recorded as 1421 cells/mm^2.

On to `CC(C)(Nc1nc(-c2ccncc2Cl)nc2cnccc12)C(F)(F)F` [Example 139, 2-(3-chloropyridin-4-yl)-N-(1,1,1-trifluoro-2-methylpropan-2-yl)pyrido[3,4-d]pyrimidin-4-amine], for which the IC50 against LATS1 was 3 nM; in assay [1], 20 nM; in [2] it was 380 nM; in assay [4], 1700 nM. For the same molecule, the EC50 in assay [3] came out at 2660 nM. The Expansion factor in [5] is 961. In addition, the “Percentage of p63a-positive cells” value in assay [6] is on record as 87%. Further, in [7], the “Expansion factor (Fold Cell expansion)” value is given as 107. Further, in assay [8], the “Endothelial Cell density in vitro” value is listed as 1179 cells/mm^2.

Turning to `CCCNc1nc(-c2c[nH]nc2C(F)(F)F)nc2cnccc12` [Example 287, N-propyl-2-(3-(trifluoromethyl)-1H-pyrazol-4-yl)pyrido[3,4-d]pyrimidin-4-amine], the IC50 on LATS1 was 2 nM; in [1] it was 15 nM; in assay [2] it was 2990 nM; in assay [4], 9000 nM. The same molecule yielded a concentration giving a half-maximal response (EC50) in assay [3] of 3880 nM. In addition, the Expansion factor in assay [5] was 991. In assay [6], the “Percentage of p63a-positive cells” value is listed as 86%. Further, the “Expansion factor (Fold Cell expansion)” value in [7] is 237. For the same molecule, the “Endothelial Cell density in vitro” value in assay [8] worked out at 1893 cells/mm^2.

Consider `CC(C)Nc1nc(-c2ccncc2)nc2cnccc12` [Example 6, N-(propan-2-yl)-2-(pyridin-4-yl)pyrido[3,4-d]pyrimidin-4-amine], for which the concentration for half-maximal inhibition (IC50) against LATS1 is 1 nM; in assay [1], 8 nM; in assay [2] it was 1240 nM; in assay [4] it was 2600 nM. Besides, the concentration for a half-maximal effect (EC50) in assay [3] is 1700 nM. In [5], the Expansion factor turned out to be 1275. Moreover, in [6], the “Percentage of p63a-positive cells” value came out at 93%. In addition, the “Expansion factor (Fold Cell expansion)” value in [7] came out at 391. The “Endothelial Cell density in vitro” value in assay [8] turned out to be 3378 cells/mm^2.

Take `O[C@H]1CCC[C@@H]1Nc1nc(-c2ccncc2)nc2cnccc12` [Example 33, (1S,2S)-2-{[2-(pyridin-4-yl)pyrido[3,4-d]pyrimidin-4-yl]amino}cyclopentan-1-ol]: the figures for the IC50 (against LATS1; in assay [2]) were 71 nM and above 20000 nM, respectively. This molecule came in with a concentration giving a half-maximal response (EC50) in assay [3] above 20000 nM. Besides, in assay [5], the Expansion factor is listed as 39. In addition, in assay [6], the “Percentage of p63a-positive cells” value was 6%. Further, the “Expansion factor (Fold Cell expansion)” value in assay [7] is recorded as 12. Besides, in [8], the “Endothelial Cell density in vitro” value stood at 25 cells/mm^2.

The values above are taken from patent US11458138B2 (Novartis AG, priority 2017, dated 2022).
